Assay results: paper PMC12867150, “A fungi-derived cyclic peptide enhances Th9-mediated antitumor immunity by targeting ZAP70 and SREBP1” (The Journal of Clinical Investigation, 2025)

Tests used:
Conditions in all cases: result in words
gene sets in Th9 cells = test: GSEA / pathway enrichment of RNA-seq data; assay type: cell-based, mouse
Method: GSEA was performed using the clusterProfiler R package (v4.12.6), with curated gene sets obtained from the Gene Ontology and Kyoto Encyclopedia of Genes and Genomes databases. Enrichment plots were generated using the GseaVis R package (v0.1.0) to facilitate data visualization.

ZAP70 = test: CETSA of ZAP70 in Jurkat cell lysates (Figure 5C-D); assay type: binding, Jurkat cells
Method: Jurkat or 293T cells were washed twice with PBS and resuspended in PBS containing protease and phosphatase inhibitors. Cells were lysed by 3 cycles of liquid nitrogen snap-freezing and thawing at room temperature. […] One aliquot from each group was maintained at room temperature, and the others were heated for 3 minutes at 3 °C increments from 43°C to 64°C. Samples were then analyzed by SDS-PAGE and immunoblotting to assess protein thermal stability and compound binding.

B16-OVA melanoma = test: Adoptive transfer of OT-II Th9 cells, B16-OVA tumor growth in β2m-KO mice (Figure 2H); assay type: in vivo
Source text: (A) Schematic of the therapeutic model. C57BL/6 mice were subcutaneously inoculated with B16-OVA melanoma cells (5 × 10^5) and preconditioned with cyclophosphamide (CTX) on day 4. […] (B–G) Flow-cytometric analysis of transferred CD45.1^+ OT-II Th9 cells (B and C) and endogenous CD4^+ (D and E) and CD8^+ T cells (F and G) in spleens and tumors, showing frequencies and absolute numbers (n = 4 mice per group). (H) Tumor growth curves in B16-OVA–bearing C57BL/6 or β2-microglobulin–deficient (β2m-KO) mice following transfer of control or EpA-treated OT-II Th9 cells (n = 4 mice per group). (I) C57BL/6 mice bearing B16-OVA tumors were treated with control or EpA-induced OT-II Th9 cells (2 × 10^6, i.v., day 5), followed by anti–PD-1 antibody (200 μg, i.p.) on day 7, and (100 μg, i.p.) on day 10 and 12. Tumor growth is shown with individual trajectories (n = 6 mice per group). Statistical analysis was performed using 2-tailed unpaired Student’s t test ([…], B–G) or 1-way ANOVA with Tukey’s post hoc test (H and I). All data are presented as the mean ± SEM. *P < 0.05, **P < 0.01, ***P < 0.001. Schematic in A created using BioRender (https://Biorender.com).
To directly assess the requirement for endogenous CD8^+ T cells, we utilized β2-microglobulin–deficient (β2m-KO) mice, which lack functional MHC class I and are therefore devoid of CD8^+ T cells ([32]). […]

human Th9 cells = test: Intracellular ATP of human Th9 cells (Figure 8E); assay type: cell-based
Method: For Th9 polarization, cultures were supplemented with IL-4 (10 ng/mL, PeproTech, catalog AF-200-04), TGF-β (1 ng/mL), and neutralizing anti–IFN-γ monoclonal antibody (10 μg/mL, clone B27, BioXcell, catalog BE0245). After 3 days of initial culture, cells were either collected for downstream assays or continued in extended culture with refreshed cytokines to maintain lineage commitment without antibodies. Th9 cells were collected at days 4, 5, and 6 for subsequent in vitro assays. For adoptive transfer studies, day 4–cultured Th9 cells were washed and prepared for intravenous injection.
Intracellular adenosine triphosphate (ATP) levels were measured using a chemiluminescent ATP assay kit (Beyotime, catalog S0026) according to the manufacturer’s protocol. Briefly, cells were lysed and incubated with the luciferase-based detection reagent, and the resulting luminescent signal was detected using an Infinite M200 multimode microplate reader (TECAN). ATP concentrations were calculated based on a standard curve and normalized to cell number or protein content where applicable.

anteiso-C15 Leu7 surfactin [EpA]
glycolytic and carbon metabolism pathways (gene sets in Th9 cells): significant enrichment
lipid-related pathways (gene sets in Th9 cells): markedly downregulated
oxidative phosphorylation-related gene sets (gene sets in Th9 cells): upregulation
thermal stability of ZAP70 (ZAP70): increased thermal stability of ZAP70
enhanced antitumor efficacy in β2m-KO hosts (B16-OVA melanoma): completely abolished
ATP production, human Th9 (human Th9 cells): increased
